Source: ChEMBL document CHEMBL1201862, “PubChem BioAssay data set” (2004)
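A five-concentration, 48-hour dose response in 96-well plates underlies each endpoint, interpolated linearly between surrounding concentrations. Here, GI50 denotes the concentration required for 50% inhibition of growth.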 Activity calls are given as the source filed them. Cut-off read from the data, not from the text of the source: active = GI50 up to about 1.1 µM and inactive = higher.

What was measured:
Test in all cases: NCI tumour cell line growth inhibition, 48 h
SNB-19 = test system: SNB-19
M14 = test system: M14
NCI-H522 = test system: NCI-H522
UACC-62 = test system: UACC-62
MDA-MB-231 = test system: MDA-MB-231
IGROV-1 = test system: IGROV-1
HT-29 = test system: HT-29
T47D = test system: T47D
CCRF-CEM = test system: CCRF-CEM
MDA-N = test system: MDA-N
SF-268 = test system: SF-268
SF-539 = test system: SF-539
KM12 = test system: KM12
TK-10 = test system: TK-10
SK-MEL-5 = test system: SK-MEL-5
UACC-257 = test system: UACC-257
OVCAR-5 = test system: OVCAR-5
SF-295 = test system: SF-295
SNB-75 = test system: SNB-75
RXF 393 = test system: RXF 393

Measured: GI50

Nc1ccc(CCN2CCN(CCCc3ccccc3)CC2)cc1
inactive: SNB-19 > 100 µM | M14 39.4 µM | NCI-H522 39.2 µM | UACC-62 > 100 µM | MDA-MB-231 60.8 µM | IGROV-1 98.6 µM | HT-29 16.2 µM | T47D 14.7 µM | CCRF-CEM 48.2 µM | MDA-N > 100 µM | SF-268 > 100 µM | SF-539 80.5 µM | KM12 82.8 µM | TK-10 > 100 µM | SK-MEL-5 29.6 µM | UACC-257 62.4 µM | OVCAR-5 > 100 µM | SF-295 > 100 µM

CC(C)(C)OC(=O)Cn1ncn(NC(=O)Cc2ccccc2)c1=S
inactive: SNB-19 > 10 µM | M14 > 10 µM | NCI-H522 > 10 µM | UACC-62 > 10 µM | MDA-MB-231 > 10 µM | IGROV-1 > 10 µM | HT-29 > 10 µM | T47D > 10 µM | CCRF-CEM > 10 µM | MDA-N > 10 µM | SF-268 > 10 µM | SF-539 > 10 µM | SNB-75 > 10 µM | KM12 > 10 µM | TK-10 > 10 µM | SK-MEL-5 > 10 µM | UACC-257 > 10 µM | OVCAR-5 > 10 µM | SF-295 > 10 µM

CCN1CCN(c2nc3ccccc3nc2C(=O)c2ccc(OC)cc2)CC1
inactive: SNB-19 90.2 µM | M14 15 µM | NCI-H522 53.6 µM | UACC-62 20.6 µM | IGROV-1 75.9 µM | HT-29 23.9 µM | T47D > 100 µM | MDA-N 32.1 µM | SF-268 29.4 µM | SF-539 26.4 µM | SNB-75 37.2 µM | KM12 24.8 µM | RXF 393 12.4 µM | TK-10 22.6 µM | SK-MEL-5 37.2 µM | UACC-257 16.5 µM | OVCAR-5 56.8 µM | SF-295 32.7 µM

CC1(C)C(CC(=O)O)CCCC1CC(=O)O (stereo not given)
inactive: SNB-19 > 100 µM | M14 > 100 µM | UACC-62 > 100 µM | MDA-MB-231 > 100 µM | IGROV-1 > 100 µM | HT-29 > 100 µM | T47D > 100 µM | CCRF-CEM > 100 µM | MDA-N > 100 µM | KM12 > 100 µM | RXF 393 > 100 µM | TK-10 > 100 µM | SK-MEL-5 > 100 µM | UACC-257 > 100 µM | OVCAR-5 > 100 µM | SF-295 > 100 µM

O=C(NC(CS)C(=O)O)c1c2ccccc2nc2ccccc12 (stereo not given)
inactive: SNB-19 23.7 µM | M14 > 100 µM | NCI-H522 31.1 µM | UACC-62 48.8 µM | MDA-MB-231 76.6 µM | IGROV-1 38 µM | HT-29 14.5 µM | CCRF-CEM 61.7 µM | MDA-N 14.5 µM | SF-268 > 100 µM | SF-539 > 100 µM | SNB-75 83.8 µM | KM12 24.8 µM | TK-10 > 100 µM | SK-MEL-5 3.28 µM | UACC-257 13.7 µM | OVCAR-5 > 100 µM | SF-295 21.5 µM

CCOC(=O)C1C(c2ccc(O)c(OC)c2)c2c(n[nH]c2O)CC1(C)O (stereo not given)
inactive: SNB-19 > 100 µM | M14 > 100 µM | NCI-H522 > 100 µM | UACC-62 > 100 µM | MDA-MB-231 > 100 µM | IGROV-1 > 100 µM | HT-29 > 100 µM | T47D > 100 µM | CCRF-CEM > 100 µM | MDA-N > 100 µM | SF-268 > 100 µM | SF-539 > 100 µM | SNB-75 > 100 µM | KM12 > 100 µM | TK-10 > 100 µM | SK-MEL-5 > 100 µM | UACC-257 > 100 µM | OVCAR-5 > 100 µM | SF-295 > 100 µM

N#Cc1c(-c2ccc(Cl)cc2)c(C#N)c(=O)n(NS(=O)(=O)c2ccccc2)c1-c1ccccc1
inactive: SNB-19 > 25 µM | M14 > 25 µM | UACC-62 > 25 µM | MDA-MB-231 > 25 µM | CCRF-CEM > 25 µM | MDA-N > 25 µM | SF-539 > 25 µM | RXF 393 > 25 µM | TK-10 > 25 µM | SK-MEL-5 > 25 µM | UACC-257 > 25 µM | OVCAR-5 > 25 µM | SF-295 > 25 µM

O=C(O)CNc1ccc2c(c1)Cc1cc(Br)ccc1-2
inactive: SNB-19 24.3 µM | M14 21.8 µM | NCI-H522 18.5 µM | UACC-62 17.4 µM | MDA-MB-231 19.7 µM | IGROV-1 18 µM | HT-29 27.1 µM | T47D 20.4 µM | CCRF-CEM 22.1 µM | SF-268 28.5 µM | SF-539 23.7 µM | SNB-75 34.6 µM | KM12 9.57 µM | RXF 393 31 µM | TK-10 31.1 µM | SK-MEL-5 6.55 µM | UACC-257 22.8 µM | OVCAR-5 27.5 µM | SF-295 24.5 µM
